According to the supplement of paper PMC11451515:

Tested on: P12-Ichikawa
Test: cell viability relative to DMSO control; higher = less cytotoxic
Settings: 48 h
Procedure, shortened: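 Cells were incubated for 48 h at 37°C before CellTiter-Glo One luminescence was read. The cells were NOMO1 or SEM (500 cells/well) or P12-Ichikawa (1000 cells/well) leukemia cells, adapted for at least four passages in each medium and seeded in 1536-well plates (5 μl). Dosing used library compounds in DMSO applied by pin over 11 threefold points, 47 μM to 0.79 nM. Viability is the per-plate percentage of DMSO wells, with cell-free wells as background.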

[1] = HPLM + 10% dialyzed FBS, 0.000781 µM
[2] = HPLM + 10% dialyzed FBS, 0.00234 µM
[3] = HPLM + 10% dialyzed FBS, 0.00702 µM
[4] = HPLM + 10% dialyzed FBS, 0.0211 µM
[5] = HPLM + 10% dialyzed FBS, 0.0632 µM
[6] = HPLM + 10% dialyzed FBS, 0.19 µM
[7] = HPLM + 10% dialyzed FBS, 0.569 µM
[8] = HPLM + 10% dialyzed FBS, 1.71 µM
[9] = HPLM + 10% dialyzed FBS, 5.12 µM
[10] = HPLM + 10% dialyzed FBS, 15.4 µM
[11] = HPLM + 10% dialyzed FBS, 46.1 µM
[12] = RPMI 5 mM glucose + 10% FBS, 0.000781 µM
[13] = RPMI 5 mM glucose + 10% FBS, 0.00234 µM
[14] = RPMI 5 mM glucose + 10% FBS, 0.00702 µM
[15] = RPMI 5 mM glucose + 10% FBS, 0.0211 µM
[16] = RPMI 5 mM glucose + 10% FBS, 0.0632 µM
[17] = RPMI 5 mM glucose + 10% FBS, 0.19 µM
[18] = RPMI 5 mM glucose + 10% FBS, 0.569 µM
[19] = RPMI 5 mM glucose + 10% FBS, 1.71 µM
[20] = RPMI 5 mM glucose + 10% FBS, 5.12 µM
[21] = RPMI 5 mM glucose + 10% FBS, 15.4 µM
[22] = RPMI 5 mM glucose + 10% FBS, 46.1 µM
[23] = RPMI 5 mM glucose + 10% dialyzed FBS, 0.000781 µM
[24] = RPMI 5 mM glucose + 10% dialyzed FBS, 0.00234 µM
[25] = RPMI 5 mM glucose + 10% dialyzed FBS, 0.00702 µM
[26] = RPMI 5 mM glucose + 10% dialyzed FBS, 0.0211 µM
[27] = RPMI 5 mM glucose + 10% dialyzed FBS, 0.0632 µM
[28] = RPMI 5 mM glucose + 10% dialyzed FBS, 0.19 µM
[29] = RPMI 5 mM glucose + 10% dialyzed FBS, 0.569 µM
[30] = RPMI 5 mM glucose + 10% dialyzed FBS, 1.71 µM
[31] = RPMI 5 mM glucose + 10% dialyzed FBS, 5.12 µM
[32] = RPMI 5 mM glucose + 10% dialyzed FBS, 15.4 µM
[33] = RPMI 5 mM glucose + 10% dialyzed FBS, 46.1 µM

SMILES | cell viability [1] | cell viability [2] | cell viability [3] | cell viability [4] | cell viability [5] | cell viability [6] | cell viability [7] | cell viability [8] | cell viability [9] | cell viability [10] | cell viability [11] | cell viability [12] | cell viability [13] | cell viability [14] | cell viability [15] | cell viability [16] | cell viability [17] | cell viability [18] | cell viability [19] | cell viability [20] | cell viability [21] | cell viability [22] | cell viability [23] | cell viability [24] | cell viability [25] | cell viability [26] | cell viability [27] | cell viability [28] | cell viability [29] | cell viability [30] | cell viability [31] | cell viability [32] | cell viability [33]
CC1=CC2=C(O1)C(=C3OC(=O)\C=C(C)/C3=C2)C | 105% | 116% | 113% | 109% | 113% | 111% | 117% | 111% | 108% | 102% | 99.6% | 89.6% | 107% | 105% | 106% | 103% | 107% | 118% | 106% | 107% | 102% | 96.8% | 102% | 112% | 110% | 111% | 113% | 115% | 110% | 115% | 104% | 105% | 86.8%
CC1=C(C)C2=C(S1)[N]3C(=NN=C3[C@H](CC(=O)OC(C)(C)C)/N=C2/C4=CC=C(Cl)C=C4)C | 98.4% | 98.2% | 97.1% | 100% | 92.7% | 79.5% | 39.4% | 57.7% | 35.1% | 15.4% | 6.39% | 97.6% | 90.6% | 91.5% | 97.6% | 85.8% | 81.1% | 43% | 52.4% | 37.1% | 22.4% | 13.6% | 92.2% | 92.2% | 87.8% | 95% | 90.6% | 78.9% | 39.9% | 50.4% | 40.1% | 17.3% | 7.9%
Cc1ccc(F)c(NC(=O)Nc2ccc(-c3cccc4[nH]nc(N)c34)cc2)c1 | 102% | 113% | 107% | 112% | 112% | 115% | 115% | 120% | 116% | 111% | 81.5% | 112% | 113% | 113% | 112% | 118% | 126% | 108% | 126% | 120% | 132% | 95.3% | 105% | 122% | 123% | 122% | 127% | 127% | 97.2% | 132% | 131% | 116% | 92.6%
O=P(O)(O)C(O)(Cc1cccnc1)P(=O)(O)[O][Na] (stereo not given) | 88.6% | 81.8% | 99.2% | 11.3% | 95.5% | 94.2% | 105% | 100% | 105% | 105% | 110% | 87.4% | 98.6% | 98.9% | 16.4% | 94.5% | 98.3% | 100% | 107% | 108% | 118% | 112% | 85.3% | 91.3% | 91.2% | 17.4% | 97.7% | 100% | 95.1% | 103% | 100% | 104% | 104%
CC1(C)O[C@H]2CC(=O)OC[C@]23[C@H]2CC[C@@]4(C)[C@H](c5ccoc5)OC(=O)[C@H]5O[C@]54[C@]2(C)C(=O)C[C@@H]13 | 95.9% | 107% | 101% | 105% | 110% | 110% | 115% | 102% | 115% | 99.5% | 110% | 88.3% | 102% | 102% | 93.8% | 98.4% | 107% | 106% | 95.6% | 107% | 105% | 112% | 90.8% | 96.2% | 104% | 97.6% | 105% | 95.2% | 101% | 100% | 96.1% | 98.2% | 96.7%
C[C@@]12OC(=O)[C@@]1(NC(=O)[C@@H]2CCCl)[C@@H](O)[C@H]\3CCC\C=C3 | 96.4% | 100% | 104% | 107% | 109% | 74.8% | 6.01% | 5.06% | 3.28% | 2.14% | 0.616% | 97.4% | 109% | 108% | 106% | 107% | 69.8% | 7.03% | 4.69% | 3.15% | 2.13% | 0.774% | 94% | 110% | 105% | 104% | 108% | 54.4% | 6.75% | 4.56% | 3.02% | 2.27% | 0.713%
CCCn1c(=O)c2[nH]c(-c3cnn(Cc4cccc(C(F)(F)F)c4)c3)nc2n(CC)c1=O | 108% | 106% | 122% | 112% | 112% | 115% | 109% | 106% | 88.1% | 83.3% | 84.7% | 115% | 124% | 123% | 137% | 125% | 118% | 85.6% | 73% | 65.1% | 74.6% | 72.9% | 114% | 109% | 105% | 108% | 107% | 109% | 109% | 103% | 81.4% | 73.6% | 68.8%
Nc1cccc(-c2cc3c(Oc4cccc(O)c4)ncnc3[nH]2)c1 | 124% | 121% | 123% | 114% | 122% | 114% | 117% | 106% | 105% | 60.5% | 15.1% | – | – | – | – | – | – | – | – | – | – | – | – | – | – | – | – | – | – | – | – | – | –
CCCCOc1ccc(C(=O)Nc2ccc(F)cc2F)cc1 | 83.2% | 95.7% | 83.5% | 86.5% | 90.6% | 85.3% | 89.1% | 97.1% | 96% | 102% | 67.1% | 78.9% | 91.8% | 82% | 92.9% | 89.4% | 89.5% | 89.4% | 93% | 89% | 88.1% | 84.3% | 84% | 83.7% | 79.2% | 87.1% | 83.9% | 80.2% | 86.7% | 89.3% | 92.5% | 87.3% | 86.6%
NC12CC3CC(CC(C3)C1)C2 | 109% | 98.8% | 103% | 103% | 105% | 111% | 108% | 103% | 117% | 114% | 105% | 102% | 119% | 118% | 120% | 119% | 123% | 112% | 113% | 110% | 109% | 107% | 104% | 113% | 109% | 111% | 115% | 116% | 115% | 118% | 115% | 105% | 103%
CN(C(=O)c1ccc(F)cc1C(F)(F)F)C1CCN(c2nnc(-c3ccnn3C)c3ccccc23)CC1 | 74.9% | 88.9% | 77.9% | 85.9% | 89.2% | 81.8% | 82.1% | 84.5% | 79.4% | 85.4% | 47.3% | 75.1% | 83.3% | 81.5% | 76.2% | 78.5% | 81.5% | 79.4% | 71.7% | 75.3% | 82.8% | 39.6% | 73.7% | 70.6% | 72.8% | 78.5% | 79.9% | 84.8% | 75.9% | 75.1% | 74.3% | 77.7% | 38.2%
CC1(C)OC/2=C(\[C@H](NCC3=CC=CC=C3)[C@@H]1O)C(=O)C4=CC=CC=C4C2=O | 102% | 106% | 107% | 104% | 106% | 108% | 102% | 94% | 96.4% | 47.8% | 6.77% | 100% | 102% | 102% | 115% | 96.4% | 99.8% | 98.8% | 88.3% | 71.8% | 18.7% | 6.26% | 98.5% | 94.9% | 95.1% | 101% | 101% | 101% | 101% | 96.7% | 75.8% | 54.6% | 5.89%
CNC(=O)c1c(F)cccc1Nc1nc(Nc2cc3c(cc2OC)CCN3C(=O)CN(C)C)nc2[nH]ccc12 | 91.4% | 97% | 110% | 110% | 111% | 109% | 112% | 108% | 81.5% | 87.4% | 51% | 112% | 113% | 105% | 123% | 114% | 122% | 120% | 110% | 113% | 113% | 51.3% | 110% | 117% | 120% | 119% | 129% | 122% | 121% | 118% | 110% | 103% | 43.6%
CCCCc1oc2ccc(NS(C)(=O)=O)cc2c1C(=O)c1ccc(OCCCN(CCCC)CCCC)cc1 | 98.3% | 99% | 117% | 108% | 107% | 108% | 110% | 111% | 106% | 12.1% | 15% | 96% | 117% | 113% | 115% | 118% | 111% | 112% | 105% | 98.1% | 15.5% | 12.7% | 93.3% | 99.9% | 102% | 109% | 108% | 110% | 104% | 109% | 95.7% | 20.9% | 10.3%
